{"source": "patent US20260218439A1", "about": "“METHOD OF TREATING OR REDUCING CANCER COMPRISING ADMINISTERING A COMPOUND 3-(BENZO[D][1,3]DIOXOL-5-YL)-7-(1-HYDROXYPROPAN-2-YL)-1-(1H-INDOLE-3-YL)-6,7-DIHYDRO-3H-OXAZOLE[3,4-A]PYRAZINE-5,8-DIONE” (BIOLAB SANUS FARMACEUTICA LTDA, priority 2019, published 2026)", "key": {"[1]": {"tested_on": "PC3-human prostate cancer cells", "experiment": "Cell proliferation inhibition (CYQuant intracellular DNA), PC3", "format": "cell-based", "conditions": "for % Cell Proliferation Inhibition (intracellular DNA) PC-3 (average ± E.P.M.): 72 hours", "method": "(§1) For the execution of the assay, the compounds are diluted in DMSO 100% (v/v) at a concentration of 1000 μM and subsequently diluted in a Sodium Chloride solution 0.9% to obtain the storage solutions of interest for use in the assays. The final concentration of interest will be directly diluted in the cell culture medium. For the assay there are used the following tumor cell lineages: PC3-human prostate cancer cells; LNCAP-human prostate cancer cells; DU145-human prostate cancer; MNK45-human gastric cancer and RT4-human bladder cancer cells. The tumor cell lineages are maintained in culture according to standard procedures established by the Cell Bank of Rio de Janeiro (lineage place of origin) Procedure: • For the assay, the tumor cells are seeded in the concentration of 10.000 cells per well (final volume of the reaction of […]), the plate is incubated for 8 hours, for the cells to adhere to the wall of the wells. After this period, the plate is divided in groups: • (a) test group: […] of the samples were added (test compound) in the concentrations of interest; • (b) positive control group: […] of culture medium were added (100% of cell proliferation); • (c) negative control group: 200 mL of culture medium and […] of the vehicle used were added to dilute the compounds (without cells—zero proliferation); • (d) control group: […] were added of the vehicle used to dilute the compounds. This group is important to evaluate whether the vehicle used interferes in the cell proliferation. OBSERVATION: the treatment with the concentrations of samples (test compounds) and of the controls are carried out in triplicate. • Incubate the plate for 72 hours in a CO2 kiln at 37° C. • After the incubation period, add […] of the solution with DNA marker from the CYQuant Kit and incubate the plate, for 60 minutes, in a CO2 incubator at 37° C. The fluorescence intensity is determined using a fluorescence microplate reader with 485 nm excitation and 530 nm emission detection. The results obtained were normalized relative to the positive control group (100% proliferation). For the compounds there are prepared the storage solutions in the concentrations of: 100 nM, 1 μM, 3 μM, 5 μM, 10 μM and 30 μM (DMSO 10% v/v). While the final concentrations in the test are of: 10 nM, 100 nM, 300 nM, 500 nM, 1000 nM and 3000 nM (in DMSO 1% v/v)."}, "PDE5A1": {"biological_target": "T1, PDE5A1 (Homo sapiens, UniProt O76074)", "T1 construct": "purchased BPS Bioscience 60350", "experiment": "PDE5A1 fluorescence polarization enzyme assay (BPS Bioscience kit 60350)", "format": "biochemical", "method": "The evaluation of the compound is studied using BPS Bioscience enzyme assay kit (catalogue 60350). The PDE5A1 Assay kit is designed for identification of PDE5A1 inhibitors using fluorescence polarization. The assay is based on the binding of a fluorescent nucleotide monophosphate generated by PDE5A1 enzyme to the binding agent.\nIn this methodology only two simple steps on a microtiter plate are required for PDE5A1 reactions. First, the fluorescently labeled cGMP is incubated with PDE5A1 for 1 hour. Second, the binding agent is added to the reaction mixture to produce a change in fluorescent polarization that can then be measured using a fluorescence reader equipped for the measurement of fluorescence polarization.\nFor the assay the storage reagent FAM-Cyclic-3′,5′-GMP (20 μM) is diluted with PDE assay buffer to achieve the solution with a […]; the PDE5A1 enzyme is thawed and diluted with the PDE buffer obtaining a PDE5A1 solution at 10 μg/mL.\nThe assay compounds are diluted with DMSO 100% (v/v) at a concentration of 1000 μM and subsequently diluted in a Sodium chloride 0.9% solution to obtain a curve of concentrations of interest for the assay. The compounds are diluted in concentrations of: 10 nM, 30 nM, 50 nM, 100 nM, 300 nM, 500 nM, 1 μM, 3 μM, 5 μM (DMSO 10% v/v).\nThe study is comprised of groups: (i) substrate control; (ii) positive control (KIT); (iii) samples in several concentrations; (iv) tadalafil (comparative control). Each parameter (group) is triple labeled.\n• For the 4 groups there is added, to each microplate well, […] of the FAM-Cyclic-3′ reagent, 5′-GMP (200 μM). • To the substrate control group there is added, to each well, […] of vehicle (DMSO 10% v/v) and […] PDE Buffer. • To the positive control group there is added, to each well, […] of vehicle (DMSO 10% v/v). • To the tadalafil group: there is added 5 mL of the solution in the concentrations of interest. • To the test group there is added 5 mL of the sample solution (test compound)\nOBSERVATION: the parameters tested are in triplicate.\nTo begin the reaction, add […] of the PDE5A1 enzyme (diluted as described above) to the microplate wells designated as Positive Control and Samples (test and tadalafil), and incubate the microplate, for 1 hour, at a temperature of 25° C.\nAfter the incubation period, the reaction is interrupted by the addition, in all the wells, of […] of the binding agent solution and the microplate is incubated for 30 minutes, under light stirring, at room temperature. The reading of the microplate is carried out in Polarized Fluorescence (475-495 nm—excitation and 518-538 nm—emission detection) 500 nanoseconds integration time."}, "[2]": {"tested_on": "DU145-human prostate cancer", "experiment": "Cell proliferation inhibition (CYQuant intracellular DNA), DU145", "format": "cell-based", "conditions": "for % Cell Proliferation Inhibition (intracellular DNA) DU145 (average ± E.P.M.): 72 hours", "method": "as §1"}, "[3]": {"tested_on": "MNK45-human gastric cancer", "experiment": "Cell proliferation inhibition (CYQuant intracellular DNA), MNK45", "format": "cell-based", "conditions": "72 hours", "method": "as §1"}, "[4]": {"tested_on": "RT4-human bladder cancer cells", "experiment": "Cell proliferation inhibition (CYQuant intracellular DNA), RT4", "format": "cell-based", "conditions": "for % Cell Proliferation Inhibition (intracellular DNA) RT4 (average ± E.P.M.): 72 hours", "method": "as §1"}, "[5]": {"tested_on": "LNCAP-human prostate cancer cells", "experiment": "Cell proliferation inhibition (CYQuant intracellular DNA), LNCAP", "format": "cell-based", "conditions": "for % Cell Proliferation Inhibition (intracellular DNA) LNCAP (average ± E.P.M.): 72 hours", "method": "as §1"}}, "data": [{"substance": "(R)-3-(benzo [d][1, 3]dioxol-5-yl)-7-((R)-1-hydroxypropan-2-yl)-1-(1H-indole-3-yl)-6, 7-dihydro-3H-oxazole [3, 4-a]pyrazine-5, 8-dione with (S)-3-(benzo [d][1,3]dioxol-5-yl)-7-((R)-1-hydroxypropan-2-yl)-1-(1H-indole-3-yl)-6, 7-dihydro-3H-oxazole [3, 4-a]pyrazine-5, 8-dione [BL-380]", "values": [{"measurement": "antiproliferative effect (result in words)", "setting": "[1]; PC3 prostate cancer tumor lineage", "result": "presented antiproliferative effect"}, {"measurement": "% Cell Proliferation Inhibition (intracellular DNA) PC-3 (average ± E.P.M.)", "setting": "[1]; PC-3, 10 nM", "result": "39 ± 6", "unit": "%"}, {"measurement": "% Cell Proliferation Inhibition (intracellular DNA) PC-3 (average ± E.P.M.)", "setting": "[1]; PC-3, 100 nM", "result": "25 ± 5", "unit": "%"}, {"measurement": "% Cell Proliferation Inhibition (intracellular DNA) PC-3 (average ± E.P.M.)", "setting": "[1]; PC-3, 300 nM", "result": "28 ± 2", "unit": "%"}, {"measurement": "% Cell Proliferation Inhibition (intracellular DNA) PC-3 (average ± E.P.M.)", "setting": "[1]; PC-3, 500 nM", "result": "48 ± 6", "unit": "%"}, {"measurement": "% Cell Proliferation Inhibition (intracellular DNA) PC-3 (average ± E.P.M.)", "setting": "[1]; PC-3, 1000 nM", "result": "40 ± 3", "unit": "%"}, {"measurement": "% Cell Proliferation Inhibition (intracellular DNA) PC-3 (average ± E.P.M.)", "setting": "[1]; PC-3, 3000 nM", "result": "54 ± 4", "unit": "%"}, {"measurement": "% of Inhibition (PDE5A1)", "setting": "PDE5A1; compound 10 nM", "result": 0, "unit": "%"}, {"measurement": "% of Inhibition (PDE5A1)", "setting": "PDE5A1; compound 30 nM", "result": 0, "unit": "%"}, {"measurement": "% of Inhibition (PDE5A1)", "setting": "PDE5A1; compound 50 nM", "result": 0, "unit": "%"}, {"measurement": "% of Inhibition (PDE5A1)", "setting": "PDE5A1; compound 100 nM", "result": 0, "unit": "%"}, {"measurement": "% of Inhibition (PDE5A1)", "setting": "PDE5A1; compound 300 nM", "result": "15 ± 3", "unit": "%"}, {"measurement": "% of Inhibition (PDE5A1)", "setting": "PDE5A1; compound 500 nM", "result": "25 ± 3", "unit": "%"}, {"measurement": "% of Inhibition (PDE5A1)", "setting": "PDE5A1; compound 1000 nM", "result": "55 ± 4", "unit": "%"}, {"measurement": "% of Inhibition (PDE5A1)", "setting": "PDE5A1; compound 3000 nM", "result": "65 ± 2", "unit": "%"}, {"measurement": "% of Inhibition (PDE5A1)", "setting": "PDE5A1; compound 5000 nM", "result": "78 ± 1", "unit": "%"}, {"measurement": "PDE5 inhibition (result in words)", "setting": "PDE5A1; concentration series", "result": "capable of inhibiting the PDE5 in a dose-dependent manner"}, {"measurement": "concentration as from which PDE5 inhibition was observed", "setting": "PDE5A1; tested 10 nM to 5000 nM", "result": "≥ 300", "unit": "nM"}, {"measurement": "% Cell Proliferation Inhibition (intracellular DNA) DU145 (average ± E.P.M.)", "setting": "[2]; DU145, 100 nM", "result": "12 ± 4", "unit": "%"}, {"measurement": "% Cell Proliferation Inhibition (intracellular DNA) DU145 (average ± E.P.M.)", "setting": "[2]; DU145, 300 nM", "result": "10 ± 5", "unit": "%"}, {"measurement": "% Cell Proliferation Inhibition (intracellular DNA) DU145 (average ± E.P.M.)", "setting": "[2]; DU145, 500 nM", "result": "12 ± 2", "unit": "%"}, {"measurement": "% Cell Proliferation Inhibition (intracellular DNA) DU145 (average ± E.P.M.)", "setting": "[2]; DU145, 1000 nM", "result": "10 ± 3", "unit": "%"}, {"measurement": "% Cell Proliferation Inhibition (intracellular DNA) DU145 (average ± E.P.M.)", "setting": "[2]; DU145, 3000 nM", "result": "31 ± 5", "unit": "%"}, {"measurement": "antiproliferative effect (result in words)", "setting": "[2]; DU145 prostate cancer tumor lineage", "result": "presented antiproliferative effect"}, {"measurement": "% Cell Proliferation Inhibition (intracellular DNA) MNK45 (average ± E.P.M.)", "setting": "[3]; MNK45, 100 nM", "result": "7 ± 2", "unit": "%"}, {"measurement": "% Cell Proliferation Inhibition (intracellular DNA) MNK45 (average ± E.P.M.)", "setting": "[3]; MNK45, 300 nM", "result": 0, "unit": "%"}, {"measurement": "% Cell Proliferation Inhibition (intracellular DNA) MNK45 (average ± E.P.M.)", "setting": "[3]; MNK45, 500 nM", "result": 0, "unit": "%"}, {"measurement": "% Cell Proliferation Inhibition (intracellular DNA) MNK45 (average ± E.P.M.)", "setting": "[3]; MNK45, 1000 nM", "result": 0, "unit": "%"}, {"measurement": "% Cell Proliferation Inhibition (intracellular DNA) MNK45 (average ± E.P.M.)", "setting": "[3]; MNK45, 3000 nM", "result": "16 ± 5", "unit": "%"}, {"measurement": "% Cell Proliferation Inhibition (intracellular DNA) RT4 (average ± E.P.M.)", "setting": "[4]; RT4, 100 nM", "result": "8 ± 6", "unit": "%"}, {"measurement": "% Cell Proliferation Inhibition (intracellular DNA) RT4 (average ± E.P.M.)", "setting": "[4]; RT4, 300 nM", "result": "5 ± 5", "unit": "%"}, {"measurement": "% Cell Proliferation Inhibition (intracellular DNA) RT4 (average ± E.P.M.)", "setting": "[4]; RT4, 500 nM", "result": "3 ± 5", "unit": "%"}, {"measurement": "% Cell Proliferation Inhibition (intracellular DNA) RT4 (average ± E.P.M.)", "setting": "[4]; RT4, 1000 nM", "result": "3 ± 1", "unit": "%"}, {"measurement": "% Cell Proliferation Inhibition (intracellular DNA) RT4 (average ± E.P.M.)", "setting": "[4]; RT4, 3000 nM", "result": "58 ± 4", "unit": "%"}, {"measurement": "antiproliferative effect (result in words)", "setting": "[4]; RT4 bladder cancer tumor lineage", "result": "presented antiproliferative effect"}, {"measurement": "antiproliferative effect (result in words)", "setting": "[5]; LNCAP prostate cancer tumor lineage", "result": "presented antiproliferative effect"}, {"measurement": "% Cell Proliferation Inhibition (intracellular DNA) LNCAP (average ± E.P.M.)", "setting": "[5]; 10 nM", "result": "26 ± 10", "unit": "%"}, {"measurement": "% Cell Proliferation Inhibition (intracellular DNA) LNCAP (average ± E.P.M.)", "setting": "[5]; 100 nM", "result": "12 ± 3", "unit": "%"}, {"measurement": "% Cell Proliferation Inhibition (intracellular DNA) LNCAP (average ± E.P.M.)", "setting": "[5]; 300 nM", "result": "29 ± 6", "unit": "%"}, {"measurement": "% Cell Proliferation Inhibition (intracellular DNA) LNCAP (average ± E.P.M.)", "setting": "[5]; 500 nM", "result": "27 ± 2", "unit": "%"}, {"measurement": "% Cell Proliferation Inhibition (intracellular DNA) LNCAP (average ± E.P.M.)", "setting": "[5]; 1000 nM", "result": "37 ± 2", "unit": "%"}, {"measurement": "% Cell Proliferation Inhibition (intracellular DNA) LNCAP (average ± E.P.M.)", "setting": "[5]; 3000 nM", "result": "48 ± 6", "unit": "%"}]}]}
